Patent US6809065B2, “Herbicide containing substituted pyrazole derivative as active ingredient” (SDS Biotech K.K., priority 2001, dated 2004)

Experiments:
Chenopodium album [1] = assay: Upland field foliage treatment (Test Example 1); type: in vivo; settings: foliage treatment 14th day after sowing, wettable powder, 1 kg active ingredient per hectare, evaluated 21st day after application
Outline: (§1)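 Foliar spray, 1 kg a.i./ha, wettable powder in water, applied 14 d post-sowing; seeds covered by ~1 cm upland soil. Index scoring at 21 d. Higher index = stronger weed control; for crops, lower index = greater safety.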

Digitaria adscendens [2] = assay: Upland field foliage treatment (Test Example 1); type: in vivo; settings: foliage treatment 14th day after sowing, wettable powder, 1 kg active ingredient per hectare, evaluated 21st day after application
Outline: as §1

Setaria viridis [3] = assay: Upland field foliage treatment (Test Example 1); type: in vivo; settings: foliage treatment 14th day after sowing, wettable powder, 1 kg active ingredient per hectare, evaluated 21st day after application
Outline: as §1

Stellaria media [4] = assay: Upland field foliage treatment (Test Example 1); type: in vivo; settings: foliage treatment 14th day after sowing, wettable powder, 1 kg active ingredient per hectare, evaluated 21st day after application
Outline: as §1

soybean (Glycine max) [5] = assay: Upland field foliage treatment (Test Example 1), crop; type: in vivo; settings: foliage treatment 14th day after sowing, 1 kg active ingredient per hectare, evaluated 21st day, lower index = higher safety
Outline: as §1

[6] = tested on: wheat (Triticum aestivum); assay: as above; type: in vivo; settings: foliage treatment 14th day after sowing, 1 kg active ingredient per hectare, evaluated 21st day, lower index = higher safety
Outline: as §1

Chenopodium album [7] = assay: Upland soil treatment (Test Example 2); type: in vivo; settings: soil surface treatment next day after sowing, wettable powder, 1 kg active ingredient per hectare, evaluated 21st day after application
Outline: (§2)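 Scores were assigned 21 days after treatment on an index where higher means stronger weed control and, for crops, lower means greater safety. A wettable-powder formulation at 1 kg a.i./ha was applied to the soil surface one day after sowing seeds under about 1 cm of upland soil.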

Digitaria adscendens [8] = assay: Upland soil treatment (Test Example 2); type: in vivo; settings: soil surface treatment next day after sowing, wettable powder, 1 kg active ingredient per hectare, evaluated 21st day after application
Outline: as §2

Setaria viridis [9] = assay: Upland soil treatment (Test Example 2); type: in vivo; settings: soil surface treatment next day after sowing, wettable powder, 1 kg active ingredient per hectare, evaluated 21st day after application
Outline: as §2

Stellaria media [10] = assay: Upland soil treatment (Test Example 2); type: in vivo; settings: soil surface treatment next day after sowing, wettable powder, 1 kg active ingredient per hectare, evaluated 21st day after application
Outline: as §2

soybean (Glycine max) [11] = assay: Upland soil treatment (Test Example 2), crop; type: in vivo; settings: soil surface treatment next day after sowing, 1 kg active ingredient per hectare, evaluated 21st day, lower index = higher safety
Outline: as §2

[12] = tested on: wheat (Triticum aestivum); assay: Upland soil treatment (Test Example 2), crop; type: in vivo; settings: soil surface treatment next day after sowing, 1 kg active ingredient per hectare, evaluated 21st day, lower index = higher safety
Outline: as §2

Echinochloa spp. = assay: Paddy field treatment (Test Example 3); type: in vivo, Echinochloa crusgalli; settings: paddy pot, submerged 4 cm, dropped on water surface 10th day after transplantation, 1 kg active ingredient per hectare, evaluated 21st day
Outline: (§3)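 Paddy soil in pots was puddled and flooded to 4 cm, weeds were sown, and two-leaf Koshihikari rice was transplanted at 3 cm depth. Ten days after transplanting, wettable powder was applied onto the water surface at 1 kg active ingredient per hectare. Herbicidal effect was index-scored 21 days later.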

Ammannia multiflora = assay: Paddy field treatment (Test Example 3); type: in vivo; settings: paddy pot, submerged 4 cm, dropped on water surface 10th day after transplantation, 1 kg active ingredient per hectare, evaluated 21st day
Outline: as §3

Monochoria vaginalis = assay: Paddy field treatment (Test Example 3); type: in vivo; settings: paddy pot, submerged 4 cm, dropped on water surface 10th day after transplantation, 1 kg active ingredient per hectare, evaluated 21st day
Outline: as §3

Scirpus juncoides = assay: Paddy field treatment (Test Example 3); type: in vivo; settings: paddy pot, submerged 4 cm, dropped on water surface 10th day after transplantation, 1 kg active ingredient per hectare, evaluated 21st day
Outline: as §3

[13] = tested on: rice (Oryza sative, variety: Koshihikari); assay: Paddy field treatment (Test Example 3), crop; type: in vivo, Oryza sativa; settings: transplanted rice two-leaf period, water surface treatment 10th day after transplantation, 1 kg active ingredient per hectare, evaluated 21st day, lower index = higher safety
Outline: as §3

SMILES	Herbicidal activity Chenopodium album (Chenopodium album [1])	Herbicidal activity Digitaria adscendens (Digitaria adscendens [2])	Herbicidal activity Setaria viridis (Setaria viridis [3])	Herbicidal activity Stellaria media (Stellaria media [4])	Herbicidal activity Glycine max (soybean (Glycine max) [5])	Herbicidal activity Triticum aestivum [6]	Herbicidal activity Chenopodium album (Chenopodium album [7])	Herbicidal activity Digitaria adscendens (Digitaria adscendens [8])	Herbicidal activity Setaria viridis (Setaria viridis [9])	Herbicidal activity Stellaria media (Stellaria media [10])	Herbicidal activity Glycine max (soybean (Glycine max) [11])	Herbicidal activity Triticum aestivum [12]	Herbicidal activity Echinochloa spp. (Echinochloa spp.)	Herbicidal activity Ammannia multiflora (Ammannia multiflora)	Herbicidal activity Monochoria vaginalis (Monochoria vaginalis)	Herbicidal activity Scirpus juncoides (Scirpus juncoides)	Herbicidal activity Oryza sativa [13]
COC=C(Cn1nc(-c2ccccc2)c(C)c1Br)C(=O)OC [Compound 46]	5 (herbicidal effect of not less than 90% by weight)	4 (herbicidal effect of not less than 70% by weight and less than 90% by weight)	4 (herbicidal effect of not less than 70% by weight and less than 90% by weight)	5 (herbicidal effect of not less than 90% by weight)	1 (herbicidal effect of not less than 10% by weight and less than 30% by weight)	0 (herbicidal effect of not less than 0% by weight and less than 10% by weight)	4 (herbicidal effect of not less than 70% by weight and less than 90% by weight)	4 (herbicidal effect of not less than 70% by weight and less than 90% by weight)	4 (herbicidal effect of not less than 70% by weight and less than 90% by weight)	4 (herbicidal effect of not less than 70% by weight and less than 90% by weight)	0 (herbicidal effect of not less than 0% by weight and less than 10% by weight)	0 (herbicidal effect of not less than 0% by weight and less than 10% by weight)	3 (herbicidal effect of not less than 50% by weight and less than 70% by weight)	3 (herbicidal effect of not less than 50% by weight and less than 70% by weight)	3 (herbicidal effect of not less than 50% by weight and less than 70% by weight)	3 (herbicidal effect of not less than 50% by weight and less than 70% by weight)	0 (herbicidal effect of not less than 0% by weight and less than 10% by weight)
COC=C(Cn1cc(Cl)c(-c2cccc(OC)c2)n1)C(=O)OC [Compound 16]	5 (herbicidal effect of not less than 90% by weight)	5 (herbicidal effect of not less than 90% by weight)	5 (herbicidal effect of not less than 90% by weight)	5 (herbicidal effect of not less than 90% by weight)	1 (herbicidal effect of not less than 10% by weight and less than 30% by weight)	0 (herbicidal effect of not less than 0% by weight and less than 10% by weight)	4 (herbicidal effect of not less than 70% by weight and less than 90% by weight)	5 (herbicidal effect of not less than 90% by weight)	5 (herbicidal effect of not less than 90% by weight)	5 (herbicidal effect of not less than 90% by weight)	0 (herbicidal effect of not less than 0% by weight and less than 10% by weight)	0 (herbicidal effect of not less than 0% by weight and less than 10% by weight)	5 (herbicidal effect of not less than 90% by weight)	5 (herbicidal effect of not less than 90% by weight)	5 (herbicidal effect of not less than 90% by weight)	5 (herbicidal effect of not less than 90% by weight)	0 (herbicidal effect of not less than 0% by weight and less than 10% by weight)
CCc1c(Br)c(-c2ccccc2)nn1CC(=COC)C(=O)OC [Compound 43]	5 (herbicidal effect of not less than 90% by weight)	4 (herbicidal effect of not less than 70% by weight and less than 90% by weight)	4 (herbicidal effect of not less than 70% by weight and less than 90% by weight)	5 (herbicidal effect of not less than 90% by weight)	0 (herbicidal effect of not less than 0% by weight and less than 10% by weight)	0 (herbicidal effect of not less than 0% by weight and less than 10% by weight)	4 (herbicidal effect of not less than 70% by weight and less than 90% by weight)	4 (herbicidal effect of not less than 70% by weight and less than 90% by weight)	4 (herbicidal effect of not less than 70% by weight and less than 90% by weight)	4 (herbicidal effect of not less than 70% by weight and less than 90% by weight)	0 (herbicidal effect of not less than 0% by weight and less than 10% by weight)	0 (herbicidal effect of not less than 0% by weight and less than 10% by weight)	3 (herbicidal effect of not less than 50% by weight and less than 70% by weight)	3 (herbicidal effect of not less than 50% by weight and less than 70% by weight)	3 (herbicidal effect of not less than 50% by weight and less than 70% by weight)	4 (herbicidal effect of not less than 70% by weight and less than 90% by weight)	0 (herbicidal effect of not less than 0% by weight and less than 10% by weight)
CCc1c(Cl)c(-c2ccccc2)nn1CC(=COC)C(=O)OC [Compound 39]	5 (herbicidal effect of not less than 90% by weight)	4 (herbicidal effect of not less than 70% by weight and less than 90% by weight)	4 (herbicidal effect of not less than 70% by weight and less than 90% by weight)	5 (herbicidal effect of not less than 90% by weight)	1 (herbicidal effect of not less than 10% by weight and less than 30% by weight)	0 (herbicidal effect of not less than 0% by weight and less than 10% by weight)	4 (herbicidal effect of not less than 70% by weight and less than 90% by weight)	4 (herbicidal effect of not less than 70% by weight and less than 90% by weight)	4 (herbicidal effect of not less than 70% by weight and less than 90% by weight)	4 (herbicidal effect of not less than 70% by weight and less than 90% by weight)	0 (herbicidal effect of not less than 0% by weight and less than 10% by weight)	0 (herbicidal effect of not less than 0% by weight and less than 10% by weight)	4 (herbicidal effect of not less than 70% by weight and less than 90% by weight)	3 (herbicidal effect of not less than 50% by weight and less than 70% by weight)	3 (herbicidal effect of not less than 50% by weight and less than 70% by weight)	4 (herbicidal effect of not less than 70% by weight and less than 90% by weight)	0 (herbicidal effect of not less than 0% by weight and less than 10% by weight)
